The target of the assay is α-glucosidase from Saccharomyces cerevisiae (Saccharomyces cerevisiae, UniProt P53341). Kind of assay: α-Glucosidase inhibitory assay. In kind it is biochemical. The following applies: mean ± standard error, n = 3; for Inhibition (I, %) 10 μM: compound at 10 μM; for Inhibition (I, %) 10 μM / Inhibition (I, %) 25 μM: series 250–10 μM; for Inhibition (I, %) 25 μM: compound at 25 μM; for Inhibition (I, %) 50 μM: compound at 50 μM; for Inhibition (I, %) 100 μM: compound at 100 μM; for Inhibition (I, %) 250 μM: compound at 250 μM.
Sequence of α-glucosidase from Saccharomyces cerevisiae (P53341 whole entry): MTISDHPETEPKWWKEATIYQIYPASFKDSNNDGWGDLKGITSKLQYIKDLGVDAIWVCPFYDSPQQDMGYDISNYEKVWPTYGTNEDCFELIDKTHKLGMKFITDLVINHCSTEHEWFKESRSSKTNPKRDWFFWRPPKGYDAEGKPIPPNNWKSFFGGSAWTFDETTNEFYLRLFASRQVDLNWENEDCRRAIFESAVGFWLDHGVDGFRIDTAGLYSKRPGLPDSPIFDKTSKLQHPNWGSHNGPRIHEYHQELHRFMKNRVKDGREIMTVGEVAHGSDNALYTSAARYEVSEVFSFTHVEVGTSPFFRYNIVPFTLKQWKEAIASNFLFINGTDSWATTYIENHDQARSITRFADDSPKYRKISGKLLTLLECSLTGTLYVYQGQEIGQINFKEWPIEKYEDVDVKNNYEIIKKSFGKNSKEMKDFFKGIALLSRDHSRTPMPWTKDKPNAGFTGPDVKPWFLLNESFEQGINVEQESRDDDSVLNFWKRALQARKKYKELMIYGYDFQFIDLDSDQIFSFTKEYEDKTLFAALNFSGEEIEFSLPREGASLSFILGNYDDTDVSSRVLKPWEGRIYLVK

Regarding `C[C@H]1O[C@H](O[C@H]2[C@H](O)[C@@H](O)[C@@H](O[C@H]3[C@H](O)[C@@H](O)C(O)O[C@@H]3CO)O[C@@H]2CO)[C@H](O)[C@@H](O)[C@@H]1N[C@H]1C=C(CO)[C@@H](O)[C@H](O)[C@H]1O` (stereo partly shown) [Acarbose], the “Inhibition (I, %) 10 μM” value is reported as 5.45 ± 0.68%; the “Inhibition (I, %) 25 μM” value came out at 9.3 ± 1.2%; the “Inhibition (I, %) 50 μM” value is listed as 21.0 ± 1.6%; the “Inhibition (I, %) 100 μM” value is 26.8 ± 1.0%. Further, the “Inhibition (I, %) 250 μM” value was 63.8 ± 1.0%.

As to `O=c1c(O)c(-c2ccc(O)cc2)oc2cc(O)cc(O)c12` [Compound 8, kaempferol], the “Inhibition (I, %) 10 μM” value is listed as 8.6 ± 1.4%; the “Inhibition (I, %) 25 μM” value is given as 44.1 ± 2.9%; the “Inhibition (I, %) 50 μM” value came out at 84.9 ± 1.1%; the “Inhibition (I, %) 100 μM” value was determined as 98.5 ± 2.2%. Further, the “Inhibition (I, %) 250 μM” value is given as “^b (Inhibition > 99%)”.

Source of the values: PMC12284876 (RSC Advances, 2025).
